This note sets out measurements from BindingDB's records for patent US20240190824 (Ono Pharmaceutical Co., 2024).

One assay has as its target T1, Potassium channel subfamily K member 2 (Homo sapiens, UniProt O95069).
T1 sequence (O95069 whole entry): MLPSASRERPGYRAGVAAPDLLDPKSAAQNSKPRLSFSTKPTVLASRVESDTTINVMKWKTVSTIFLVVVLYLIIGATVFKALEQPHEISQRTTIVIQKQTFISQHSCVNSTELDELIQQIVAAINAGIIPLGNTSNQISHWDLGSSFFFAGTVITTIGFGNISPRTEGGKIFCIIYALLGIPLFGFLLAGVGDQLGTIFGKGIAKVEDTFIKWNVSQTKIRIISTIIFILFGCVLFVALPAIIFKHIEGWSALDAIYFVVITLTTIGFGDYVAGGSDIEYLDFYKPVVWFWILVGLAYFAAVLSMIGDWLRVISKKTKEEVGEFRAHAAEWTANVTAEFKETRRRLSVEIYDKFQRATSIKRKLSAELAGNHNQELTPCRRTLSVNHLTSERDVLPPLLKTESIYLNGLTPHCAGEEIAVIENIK
Briefly: Thallium flux assay.
On to `Cc1cc(COc2ccc(Cl)c(C(=O)Nc3ncc(C#Cc4ccccc4)cc3C)c2)on1` [US20240190824, Compound 83], for which half-maximal inhibition (IC50) required 390 nM.

On to `Cc1cc(C#Cc2cccc(F)c2)nc(C)c1NC(=O)c1cc(NC(=O)OC(C)(C)C)ccc1Cl` [US20240190824, Compound 11], for which 410 nM corresponded to half-maximal inhibition (IC50).

Turning to `Cc1cc(C#Cc2ccccc2)cnc1NC(=O)c1cc(OCC2CCOC2)ccc1Cl` (stereo unspecified) [US20240190824, Compound 85], 490 nM corresponded to half-maximal inhibition (IC50).

Turning to `CC(C)(C)OC(=O)Nc1ccc(Cl)c(C(=O)Nc2c(F)cc(C#Cc3ccccc3)cc2F)c1` [US20240190824, Compound 30], the IC50 (usually the concentration that inhibits the measured activity by half) stood at 220 nM.

In the case of `Cc1cc(C#Cc2ccccc2)cc(F)c1NC(=O)c1cc(NC(=O)OC(C)(C)C)ccc1Cl` [US20240190824, Compound 29], the IC50 is 210 nM.

For another assay, the target named is T1, Potassium channel subfamily K member 2. Description: TREK-1 Manual Patch Clamp (hMPC) assay. The protocol: TBDCHO-K1 cells stably expressing human TREK-1 or HEK293 cells stably expressing human TREK-2 are plated on glass coverslips, and voltage clamped in the whole-cell configuration of the patch clamp technique. Cells were voltage clamped at a holding potential of −80 mV and the stepped to 0 mV for 500 msec. The voltage was subsequently ramped from −120 mV to +80 mV over a 500 msec duration. This step-ramp protocol was repeated every 10 sec.
A general note: In patch-clamp work, channel activity is measured electrically.
`Cc1cc(C#Cc2cccc(F)c2)nc(C)c1NC(=O)c1cc(NC(=O)OC(C)(C)C)ccc1Cl` [US20240190824, Compound 11] returned an IC50 of 32 nM.
